Test: Metal cation trapping by dendrimer (dialysis, ICP-AES)
Procedure: Une solution aqueuse contenant l'ion métallique (6 mL, Cf = 4.10^-5 mol/L) a été mélangée avec une solution aqueuse de II.6 (6 mL; 2.10^-6 mol/L); la solution résultante a été agitée pendant 2h à une vitesse d'agitation de 300 tours/min à température ambiante.
Une dialyse d'une heure a été réalisée en utilisant une membrane d'ester de cellulose (Cutoff 1000) dans de l'eau distillée (1L). Pour déterminer la quantité d'ion métallique extraite par le dendrimère, 10 mL de l'eau de dialyse ont été prélevés pour l'analyse ICP-AES (Spectrométrie à plasma à couplage inductif - Spectrométrie d'Emission Atomique).
L'analyse de l'eau de dialyse par ICP-AES (Thermo Scientific, iCAP 6000 Séries) a permis d'obtenir la quantité de métal résiduelle. La quantité d'ions (M^n+) présente dans la phase dendrimère a été obtenue par différence entre la quantité initiale et la quantité résiduelle.
Le pourcentage de rétention (% R) a été calculé selon l'expression suivante : %R = (n(Maq(initial))−n(Maq(final)))/(n Maq(initial)) × 100 [formula] avec n (Maq(initial)) et n (Maq(final)), les nombres de moles d'ions métalliques respectivement dans la solution de départ et dans l'eau de dialyse après extraction.

OCC(O)COCC(COCC(COCC(COCC(COCC(COCC(O)CO)OCC(O)CO)OCC(COCC(O)CO)OCC(O)CO)OCC(COCC(COCC(O)CO)OCC(O)CO)OCC(COCC(O)CO)OCC(O)CO)OCC(COCC(O)CO)OCC(O)CO)OCC(O)CO (stereo not shown) [II.6]
% R (Ag^+, Rapport n (Maq (initial)) / n (II.6) = 104,5): 88% | % R (Cd^2+, Rapport n (Maq (initial)) / n (II.6) = 73): 95,5% | % R (Ce^3+, Rapport n (Maq (initial)) / n (II.6) = 93): >95% | % R (Cu^2+, Rapport n (Maq (initial)) / n (II.6) = 63,6): 75% | % R (Hg^2+, Rapport n (Maq (initial)) / n (II.6) = 140): 85% | % R (Ni^2+, Rapport n (Maq (initial)) / n (II.6) = 85,5): 89% | % R (Pb^2+, Rapport n (Maq (initial)) / n (II.6) = 77): 99%

From patent EP3826985B1, “DENDRIMER-TYPE COMPOUNDS, METHODS FOR PRODUCING SAME, AND USES THEREOF” (Université De Reims Champagne-Ardenne, priority 2018, dated 2020)
